The values below come from ChEMBL document CHEMBL5724914, “Linking interpersonal differences in gut microbiota composition and drug biotransformation activity” (2024).

Data set [1] is described as follows: The drug is tested on Z-030 corresponding to mouse gut metagenome with ENA study accession number: PRJEB37062 and ENA sample accession number: ERS12561829 for biotransformation under anaerobic condition. The drug concentrations were measured over 9 timepoints collected between 0 and 24 hours of incubation by liquid-chromatography-coupled mass spectrometry (LC–MS). To be noted: 2 µM.

Data set [2] can be described thus: The drug is tested on Z-027 corresponding to metagenome with ENA study accession number: PRJEB37062 and ENA sample accession number: ERS12561826 for biotransformation under anaerobic condition. The drug concentrations were measured over 9 timepoints collected between 0 and 24 hours of incubation by liquid-chromatography-coupled mass spectrometry (LC–MS). The conditions noted are these: 2 µM.

Data set [3] is described as follows: The drug is tested on Z-020 corresponding to rabbit gut metagenome with ENA study accession number: PRJEB37062 and ENA sample accession number: ERS12561819 for biotransformation under anaerobic condition. The drug concentrations were measured over 9 timepoints collected between 0 and 24 hours of incubation by liquid-chromatography-coupled mass spectrometry (LC–MS). To be noted: 2 µM.

Data set [4] can be described thus: The drug is tested on Z-019 corresponding to rat gut metagenome with ENA study accession number: PRJEB37062 and ENA sample accession number: ERS12561818 for biotransformation under anaerobic condition. The drug concentrations were measured over 9 timepoints collected between 0 and 24 hours of incubation by liquid-chromatography-coupled mass spectrometry (LC–MS). To be noted: 2 µM.

The nature of data set [5]: The drug is tested on Z-007 corresponding to rat gut metagenome with ENA study accession number: PRJEB37062 and ENA sample accession number: ERS12561807 for biotransformation under anaerobic condition. The drug concentrations were measured over 9 timepoints collected between 0 and 24 hours of incubation by liquid-chromatography-coupled mass spectrometry (LC–MS). The conditions noted are these: 2 µM.

Data set [6] in a line: The drug is tested on Z-005 corresponding to metagenome with ENA study accession number: PRJEB37062 and ENA sample accession number: ERS12561805 for biotransformation under anaerobic condition. The drug concentrations were measured over 9 timepoints collected between 0 and 24 hours of incubation by liquid-chromatography-coupled mass spectrometry (LC–MS). The conditions noted are these: 2 µM.

The nature of data set [7]: The drug is tested on Z-002 corresponding to rabbit gut metagenome with ENA study accession number: PRJEB37062 and ENA sample accession number: ERS12561802 for biotransformation under anaerobic condition. The drug concentrations were measured over 9 timepoints collected between 0 and 24 hours of incubation by liquid-chromatography-coupled mass spectrometry (LC–MS). The conditions noted are these: 2 µM.

Data set [8] can be described thus: The drug is tested on Z-001 corresponding to mouse gut metagenome with ENA study accession number: PRJEB37062 and ENA sample accession number: ERS12561801 for biotransformation under anaerobic condition. The drug concentrations were measured over 9 timepoints collected between 0 and 24 hours of incubation by liquid-chromatography-coupled mass spectrometry (LC–MS). The conditions noted are these: 2 µM.

Data set [9] in a line: The drug is tested on WLS-098 corresponding to human gut metagenome with ENA study accession number: PRJEB37062 and ENA sample accession number: ERS12561754 for biotransformation under anaerobic condition. The drug concentrations were measured over 9 timepoints collected between 0 and 24 hours of incubation by liquid-chromatography-coupled mass spectrometry (LC–MS). The conditions noted are these: 2 µM.

Data set [10] is described as follows: The drug is tested on WLS-073 corresponding to human gut metagenome with ENA study accession number: PRJEB37062 and ENA sample accession number: ERS12561749 for biotransformation under anaerobic condition. The drug concentrations were measured over 9 timepoints collected between 0 and 24 hours of incubation by liquid-chromatography-coupled mass spectrometry (LC–MS). To be noted: 2 µM.

Data set [11] in a line: The drug is tested on WLS-069 corresponding to human gut metagenome with ENA study accession number: PRJEB37062 and ENA sample accession number: ERS12561748 for biotransformation under anaerobic condition. The drug concentrations were measured over 9 timepoints collected between 0 and 24 hours of incubation by liquid-chromatography-coupled mass spectrometry (LC–MS). The conditions noted are these: 2 µM.

Data set [12] is described as follows: The drug is tested on WLS-007 corresponding to human gut metagenome with ENA study accession number: PRJEB37062 and ENA sample accession number: ERS12561742 for biotransformation under anaerobic condition. The drug concentrations were measured over 9 timepoints collected between 0 and 24 hours of incubation by liquid-chromatography-coupled mass spectrometry (LC–MS). To be noted: 2 µM.

For data set [13] the following is noted: human gut metagenome, 24 h, 2 µM.
The conditions of data set [14]: human gut metagenome, 24 h, 2 µM. This is another data set of the same source.
The conditions of data set [15]: human gut metagenome, 24 h, 2 µM. The source holds these as a separate data set.
For data set [16] the following is noted: human gut metagenome, 24 h, 2 µM. The source holds these as a separate data set.
For data set [17] the following is noted: human gut metagenome, 24 h, 2 µM. The source holds these as a separate data set.
For data set [18] the following is noted: human gut metagenome, 24 h, 2 µM. The source holds these as a separate data set.
The conditions of data set [19]: human gut metagenome, 24 h, 2 µM. The source holds these as a separate data set.
For data set [20] the following is noted: human gut metagenome, 24 h, 2 µM. This is another data set of the same source.
Further: call rule not given here.

Consider `COc1ccc2c3c1O[C@H]1C[C@@H](O)C=C[C@@]31CCN(C)C2` [GALANTAMINE], for which the “Bacterial Biotransformation” value in data set [1], in [2], in [3], in data set [4], in data set [5] and in data set [6] was “Compound NOT metabolized” throughout. The “Bacterial Biotransformation” value in data set [7] is reported as “Compound metabolized”; in [8], “Compound NOT metabolized”; in data set [9], “Compound metabolized”; in data set [10] it was “Compound NOT metabolized”; in data set [11] it was “Compound NOT metabolized”; in [12], “Compound NOT metabolized”. Also, the “Bacterial Biotransformation” value in data set [13] is on record as “Compound NOT metabolized”; in data set [14], “Compound NOT metabolized”; in [15], “Compound metabolized”; in [16], “Compound metabolized”; in data set [17], “Compound NOT metabolized”; in [18] it was “Compound metabolized”. In addition, the “Bacterial Biotransformation” value in data set [19] and in data set [20] was “Compound NOT metabolized” throughout.

As to `Cc1ccc(S(=O)(=O)NC(=O)NN2CC3CCCC3C2)cc1` (stereo not given) [GLICLAZIDE], the “Bacterial Biotransformation” value is “Compound NOT metabolized” in data set [1]; “Compound metabolized” in data set [2]; “Compound metabolized” in data set [3]; “Compound NOT metabolized” in data set [4]; “Compound NOT metabolized” in [5]; “Compound metabolized” in data set [6]. For the same compound, the “Bacterial Biotransformation” value in data set [7] is “Compound metabolized”; in data set [8] it was “Compound metabolized”; in [9] it was “Compound metabolized”; in data set [10], “Compound metabolized”; in data set [11] it was “Compound metabolized”; in data set [12], “Compound NOT metabolized”. In addition, the “Bacterial Biotransformation” value in data set [13] is “Compound metabolized”; in data set [14] it was “Compound metabolized”; in data set [15], “Compound metabolized”; in [16] it was “Compound metabolized”; in data set [17] it was “Compound NOT metabolized”; in data set [18], “Compound metabolized”. Further, the “Bacterial Biotransformation” value in data set [19] is recorded as “Compound NOT metabolized”; in data set [20], “Compound metabolized”.

As to `COC1=CC(=O)C[C@@H](C)[C@]12Oc1c(Cl)c(OC)cc(OC)c1C2=O` [GRISEOFULVIN], the “Bacterial Biotransformation” value is “Compound NOT metabolized” in data set [1]; “Compound metabolized” in data set [2]; “Compound NOT metabolized” in [3]; “Compound NOT metabolized” in data set [4]; “Compound metabolized” in data set [5]; “Compound metabolized” in data set [6]. Besides, the “Bacterial Biotransformation” value in data set [7] was “Compound metabolized”; in data set [8], “Compound metabolized”; in data set [9] it was “Compound NOT metabolized”; in data set [10], “Compound metabolized”; in [11], “Compound metabolized”; in data set [12] it was “Compound metabolized”. Further, the “Bacterial Biotransformation” value in [13] is “Compound metabolized”; in [14], “Compound NOT metabolized”; in [15], “Compound metabolized”; in data set [16], “Compound metabolized”; in data set [17], “Compound metabolized”; in data set [18], “Compound metabolized”. In addition, the “Bacterial Biotransformation” value in data set [19] is reported as “Compound NOT metabolized”; in data set [20], “Compound metabolized”.

Consider `N#Cc1ccc(C(c2ccc(C#N)cc2)n2cncn2)cc1` [LETROZOLE], for which the “Bacterial Biotransformation” value in data set [1], in [2], in data set [3], in [4], in data set [5] and in data set [6] was “Compound NOT metabolized” throughout. For the same compound, the “Bacterial Biotransformation” value in data set [7] is on record as “Compound metabolized”; in data set [8] it was “Compound NOT metabolized”; in data set [9], “Compound NOT metabolized”; in data set [10], “Compound NOT metabolized”; in data set [11], “Compound NOT metabolized”; in data set [12], “Compound NOT metabolized”. Besides, the “Bacterial Biotransformation” value in data set [13], in data set [14], in data set [15], in data set [16], in data set [17] and in [18] was “Compound NOT metabolized” in each case. Further, the “Bacterial Biotransformation” value in [19] and in data set [20] was “Compound NOT metabolized” in each case.

For the compound `CC(Oc1c(Cl)cccc1Cl)C1=NCCN1` (stereo not given) [LOFEXIDINE], the “Bacterial Biotransformation” value in data set [1], in data set [2], in data set [3], in [4], in data set [5] and in [6] was “Compound NOT metabolized” each time. In addition, the “Bacterial Biotransformation” value in data set [7] is “Compound metabolized”; in data set [8], “Compound NOT metabolized”; in data set [9], “Compound metabolized”; in data set [10], “Compound NOT metabolized”; in [11], “Compound NOT metabolized”; in data set [12] it was “Compound metabolized”. The “Bacterial Biotransformation” value in [13] is reported as “Compound NOT metabolized”; in [14], “Compound NOT metabolized”; in data set [15], “Compound metabolized”; in [16] it was “Compound metabolized”; in [17], “Compound NOT metabolized”; in data set [18], “Compound metabolized”. Also, the “Bacterial Biotransformation” value in [19] is reported as “Compound NOT metabolized”; in data set [20], “Compound metabolized”.
